Laboratory results: PMC8300687, “A Fine-Tuned Lipophilicity/Hydrophilicity Ratio Governs Antibacterial Potency and Selectivity of Bifurcated Halogen Bond-Forming NBTIs” (Antibiotics, 2021)
Converted amounts (≈) assume the structure as drawn. Read-outs that look alike come from different tables or passages of the source.

Legend:
[1] = system: E. coli (ATCC 25922); assay: MIC broth microdilution, E. coli ATCC 25922; type: cell-based; conditions: Escherichia coli
Method: (§1) Antimicrobial testing was carried out by the broth microdilution method in 96-well plate format following the Clinical and Laboratory Standards Institute (CLSI) guidelines and European Committee on Antimicrobial Susceptibility Testing (EUCAST) recommendations. Bacterial suspension of specific bacterial strain equivalent to 0.5 McFarland turbidity standard was diluted with cation-adjusted Mueller Hinton broth with TES (Thermo Fisher Diagnostic, Landsmeer, The Netherlands), to obtain a final inoculum of 10^5 CFU/mL. Compounds dissolved in DMSO and inoculum were mixed together and incubated for 18–20 h at 35 °C. Suspensions of Mycobacterium sp. were prepared into a tube of Middelbrook 7H9 broth supplemented with 5% OADC (Thermo Scientific, Trek Diagnostic Systems, West Sussex, UK) and incubated for at least 10 days. After incubation the minimal inhibitory concentration (MIC) values were determined by visual inspection as the lowest dilution of compounds showing no turbidity. Tetracycline was used as a positive control on every assay plate.

[2] = system: C. jejuni RDK 135 (ATCC 33560); assay: MIC broth microdilution, C. jejuni; type: cell-based; conditions: Campylobacter jejuni, ATCC33560; read-out: MIC C. jejuni RDK 135 (ATCC 33560)
Method: as §1

[3] = target: T1, S. aureus Topo IV (Staphylococcus aureus, UniProt Q2FYS4); assay: biochemical; conditions: for IC50: mean of two to four measurements, read-out: Topoisomerase IV IC50 S. aureus
T1 construct: purchased Inspiralis (Norwich, UK)
T1 sequence (Q2FYS5 whole entry): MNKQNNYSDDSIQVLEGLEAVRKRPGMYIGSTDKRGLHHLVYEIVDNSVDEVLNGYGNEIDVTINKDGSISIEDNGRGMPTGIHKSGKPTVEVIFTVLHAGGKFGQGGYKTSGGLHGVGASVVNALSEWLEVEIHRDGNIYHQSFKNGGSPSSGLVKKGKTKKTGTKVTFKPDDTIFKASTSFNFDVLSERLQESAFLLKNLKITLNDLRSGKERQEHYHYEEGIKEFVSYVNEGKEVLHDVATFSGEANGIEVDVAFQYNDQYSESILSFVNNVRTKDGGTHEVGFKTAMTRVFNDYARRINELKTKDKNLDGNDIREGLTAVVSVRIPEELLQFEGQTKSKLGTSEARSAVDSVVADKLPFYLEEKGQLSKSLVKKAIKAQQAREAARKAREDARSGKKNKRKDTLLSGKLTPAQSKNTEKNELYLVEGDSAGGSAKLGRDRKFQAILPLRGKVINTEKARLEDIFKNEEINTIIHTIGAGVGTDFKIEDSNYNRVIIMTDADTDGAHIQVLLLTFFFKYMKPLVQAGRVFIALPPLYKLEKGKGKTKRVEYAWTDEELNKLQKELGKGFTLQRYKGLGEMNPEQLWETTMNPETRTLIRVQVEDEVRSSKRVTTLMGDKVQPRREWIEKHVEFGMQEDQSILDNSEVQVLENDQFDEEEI
T1 sequence (Q2FYS4 whole entry): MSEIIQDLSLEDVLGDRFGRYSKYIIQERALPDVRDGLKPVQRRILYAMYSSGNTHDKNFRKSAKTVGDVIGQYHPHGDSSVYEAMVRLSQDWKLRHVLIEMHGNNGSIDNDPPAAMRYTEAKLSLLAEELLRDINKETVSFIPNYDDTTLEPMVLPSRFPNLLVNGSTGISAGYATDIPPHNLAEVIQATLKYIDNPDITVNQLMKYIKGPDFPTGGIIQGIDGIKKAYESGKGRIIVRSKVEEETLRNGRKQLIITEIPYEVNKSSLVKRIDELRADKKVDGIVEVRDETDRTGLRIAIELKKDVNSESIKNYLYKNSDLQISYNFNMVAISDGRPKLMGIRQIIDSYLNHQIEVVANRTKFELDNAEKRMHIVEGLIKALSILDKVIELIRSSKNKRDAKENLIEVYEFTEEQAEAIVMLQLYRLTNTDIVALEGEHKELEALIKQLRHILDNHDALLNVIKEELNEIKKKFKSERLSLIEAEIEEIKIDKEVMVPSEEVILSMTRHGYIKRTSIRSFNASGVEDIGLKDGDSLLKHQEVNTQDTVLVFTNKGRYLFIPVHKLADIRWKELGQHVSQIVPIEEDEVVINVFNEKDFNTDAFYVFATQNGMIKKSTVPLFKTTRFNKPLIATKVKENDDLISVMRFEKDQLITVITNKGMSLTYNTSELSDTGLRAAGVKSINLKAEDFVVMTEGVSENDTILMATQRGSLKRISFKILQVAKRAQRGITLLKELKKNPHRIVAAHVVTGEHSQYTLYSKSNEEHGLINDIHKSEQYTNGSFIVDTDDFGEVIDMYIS
Method: (§2) A Topo IV Relaxation High Throughput Plate assay kit, purchased from Inspiralis (Norwich. UK) was used to determine IC50 values of compounds on S. aureus and E. coli. […] Biotinylated oligonucleotide in wash buffer was immobilized onto the wells, and the excess oligonucleotide was washed off with wash buffer and ultrapure water. 1.5 U of S. aureus or E. coli […] enzyme was incubated together with 0.75 μg of supercoiled pNO1 plasmid as a substrate in the presence of 3 μL inhibitor solution in 10% DMSO and 0.008% Tween 20 at 37 °C for 30 min in a final reaction volume of 30 μL in dilution buffer (50 mM Tris-HCl (pH 7.5), 1 mM DTT, 1 mM EDTA, 40% (w/v) glycerol for S. aureus and 40 mM HEPES, KOH (pH 7.6), 100 mM potassium glutamate, 1 mM DTT, 1 mM EDTA, and 40% (v/v) glycerol for E. coli). The reactions were stopped by adding the TF buffer (50 mM NaOAc (pH 4.7), 50 mM NaCl, and 50 mM MgCl2) to allow the triplex formation (biotin-oligonucleotide-plasmid) for additional 30 min. Afterward, the unbound plasmid was washed off using TF buffer, and the solution of Promega Diamond dye in T10 buffer (10 mM Tris-HCl (pH 8.0), 1 mM EDTA) was added. […] IC50 value represents the mean of two to four independent measurements.

[4] = system: E. coli (QA-11.3); assay: MIC broth microdilution, E. coli QA-11.3; type: cell-based; conditions: Escherichia coli, 20 h; read-out: MIC E. coli (QA-11.3)
Method: as §1

[5] = system: E. coli (QA-11.8); assay: MIC broth microdilution, E. coli QA-11.8; type: cell-based; conditions: Escherichia coli, 20 h; read-out: MIC E. coli (QA-11.8)
Method: as §1

[6] = system: MRSA (QA-11.2); assay: MIC broth microdilution, MRSA QA-11.2; type: cell-based, methicillin-resistant S. aureus; conditions: Staphylococcus aureus, 20 h, read-out: MIC MRSA (QA-11.2)
Method: as §1

[7] = system: P. aeruginosa RDK 184 (DSM 939); assay: MIC broth microdilution, P. aeruginosa; type: cell-based; conditions: Pseudomonas aeruginosa, DSM939; read-out: MIC P. aeruginosa RDK 184 (DSM 939)
Method: as §1

[8] = target: T2, E. coli Topo IV (Escherichia coli, UniProt P0AFI2); assay: Topo IV Relaxation High Throughput Plate assay, E. coli; type: biochemical
T2 construct: purchased Inspiralis (Norwich, UK)
T2 sequence (P0AFI2 whole entry): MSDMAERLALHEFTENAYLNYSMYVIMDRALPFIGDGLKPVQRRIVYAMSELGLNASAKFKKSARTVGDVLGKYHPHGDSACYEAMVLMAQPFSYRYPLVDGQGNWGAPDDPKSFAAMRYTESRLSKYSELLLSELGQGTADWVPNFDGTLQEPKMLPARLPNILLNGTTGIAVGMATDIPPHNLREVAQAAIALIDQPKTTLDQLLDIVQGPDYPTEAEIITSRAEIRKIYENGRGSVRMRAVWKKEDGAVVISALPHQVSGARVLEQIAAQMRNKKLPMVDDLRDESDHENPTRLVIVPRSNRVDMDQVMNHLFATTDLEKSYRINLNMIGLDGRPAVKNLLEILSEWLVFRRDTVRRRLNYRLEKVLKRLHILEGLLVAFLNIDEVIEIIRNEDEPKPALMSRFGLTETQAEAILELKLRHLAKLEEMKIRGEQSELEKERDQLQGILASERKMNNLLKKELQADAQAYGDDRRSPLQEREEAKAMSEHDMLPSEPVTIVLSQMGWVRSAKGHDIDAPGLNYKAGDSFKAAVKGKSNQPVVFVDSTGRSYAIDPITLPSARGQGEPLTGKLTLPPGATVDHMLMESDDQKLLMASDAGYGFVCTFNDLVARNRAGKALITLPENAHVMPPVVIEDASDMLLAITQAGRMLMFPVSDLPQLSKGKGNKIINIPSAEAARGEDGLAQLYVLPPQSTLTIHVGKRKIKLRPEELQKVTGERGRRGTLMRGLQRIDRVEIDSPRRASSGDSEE
T2 sequence (P20083 whole entry, further chain): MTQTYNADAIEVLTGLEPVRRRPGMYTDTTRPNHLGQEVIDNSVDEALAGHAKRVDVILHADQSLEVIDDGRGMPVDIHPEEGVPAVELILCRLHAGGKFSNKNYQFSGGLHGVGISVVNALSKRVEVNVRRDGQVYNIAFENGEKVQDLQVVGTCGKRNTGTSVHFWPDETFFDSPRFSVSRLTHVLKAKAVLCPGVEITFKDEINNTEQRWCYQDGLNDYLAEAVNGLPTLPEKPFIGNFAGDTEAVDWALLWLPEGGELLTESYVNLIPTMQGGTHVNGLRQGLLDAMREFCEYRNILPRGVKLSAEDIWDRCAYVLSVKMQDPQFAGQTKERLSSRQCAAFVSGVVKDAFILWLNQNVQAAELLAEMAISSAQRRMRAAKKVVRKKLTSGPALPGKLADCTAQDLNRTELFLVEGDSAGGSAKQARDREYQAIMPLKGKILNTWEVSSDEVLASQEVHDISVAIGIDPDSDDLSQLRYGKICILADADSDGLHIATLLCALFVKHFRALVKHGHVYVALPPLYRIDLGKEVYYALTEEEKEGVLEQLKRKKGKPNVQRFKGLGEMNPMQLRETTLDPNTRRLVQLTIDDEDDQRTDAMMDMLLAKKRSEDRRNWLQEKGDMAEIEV
Method: as §2

[9] = system: MRSA (QA-11.6); assay: MIC broth microdilution, MRSA QA-11.6; type: cell-based, methicillin-resistant S. aureus; conditions: Staphylococcus aureus, resistant to cefoxitin, gentamicin, sulfamethoxazole, tetracycline, read-out: MIC MRSA (QA-11.6)
Method: as §1

[10] = system: S. alachua RDK 030c (QA-1482/04); assay: MIC broth microdilution, S. alachua; type: cell-based; conditions: Salmonella; read-out: MIC S. alachua RDK 030c (QA-1482/04)
Method: as §1

[11] = system: S. pneumoniae (QA-10/02); assay: MIC broth microdilution, S. pneumoniae; type: cell-based; conditions: Streptococcus pneumoniae
Method: as §1

[12] = target: T3, Human topoisomerase IIα (Homo sapiens, UniProt P11388); assay: Human topoisomerase II Alpha Relaxation High Throughput Plate assay; type: biochemical; conditions: 0.5 h; residual activity of the enzyme at compound concentration 10 μM, mean ± SD; read-out: Human Topo II (% RA)
T3 construct: purchased Inspiralis (Norwich, UK)
T3 sequence (P11388 whole entry): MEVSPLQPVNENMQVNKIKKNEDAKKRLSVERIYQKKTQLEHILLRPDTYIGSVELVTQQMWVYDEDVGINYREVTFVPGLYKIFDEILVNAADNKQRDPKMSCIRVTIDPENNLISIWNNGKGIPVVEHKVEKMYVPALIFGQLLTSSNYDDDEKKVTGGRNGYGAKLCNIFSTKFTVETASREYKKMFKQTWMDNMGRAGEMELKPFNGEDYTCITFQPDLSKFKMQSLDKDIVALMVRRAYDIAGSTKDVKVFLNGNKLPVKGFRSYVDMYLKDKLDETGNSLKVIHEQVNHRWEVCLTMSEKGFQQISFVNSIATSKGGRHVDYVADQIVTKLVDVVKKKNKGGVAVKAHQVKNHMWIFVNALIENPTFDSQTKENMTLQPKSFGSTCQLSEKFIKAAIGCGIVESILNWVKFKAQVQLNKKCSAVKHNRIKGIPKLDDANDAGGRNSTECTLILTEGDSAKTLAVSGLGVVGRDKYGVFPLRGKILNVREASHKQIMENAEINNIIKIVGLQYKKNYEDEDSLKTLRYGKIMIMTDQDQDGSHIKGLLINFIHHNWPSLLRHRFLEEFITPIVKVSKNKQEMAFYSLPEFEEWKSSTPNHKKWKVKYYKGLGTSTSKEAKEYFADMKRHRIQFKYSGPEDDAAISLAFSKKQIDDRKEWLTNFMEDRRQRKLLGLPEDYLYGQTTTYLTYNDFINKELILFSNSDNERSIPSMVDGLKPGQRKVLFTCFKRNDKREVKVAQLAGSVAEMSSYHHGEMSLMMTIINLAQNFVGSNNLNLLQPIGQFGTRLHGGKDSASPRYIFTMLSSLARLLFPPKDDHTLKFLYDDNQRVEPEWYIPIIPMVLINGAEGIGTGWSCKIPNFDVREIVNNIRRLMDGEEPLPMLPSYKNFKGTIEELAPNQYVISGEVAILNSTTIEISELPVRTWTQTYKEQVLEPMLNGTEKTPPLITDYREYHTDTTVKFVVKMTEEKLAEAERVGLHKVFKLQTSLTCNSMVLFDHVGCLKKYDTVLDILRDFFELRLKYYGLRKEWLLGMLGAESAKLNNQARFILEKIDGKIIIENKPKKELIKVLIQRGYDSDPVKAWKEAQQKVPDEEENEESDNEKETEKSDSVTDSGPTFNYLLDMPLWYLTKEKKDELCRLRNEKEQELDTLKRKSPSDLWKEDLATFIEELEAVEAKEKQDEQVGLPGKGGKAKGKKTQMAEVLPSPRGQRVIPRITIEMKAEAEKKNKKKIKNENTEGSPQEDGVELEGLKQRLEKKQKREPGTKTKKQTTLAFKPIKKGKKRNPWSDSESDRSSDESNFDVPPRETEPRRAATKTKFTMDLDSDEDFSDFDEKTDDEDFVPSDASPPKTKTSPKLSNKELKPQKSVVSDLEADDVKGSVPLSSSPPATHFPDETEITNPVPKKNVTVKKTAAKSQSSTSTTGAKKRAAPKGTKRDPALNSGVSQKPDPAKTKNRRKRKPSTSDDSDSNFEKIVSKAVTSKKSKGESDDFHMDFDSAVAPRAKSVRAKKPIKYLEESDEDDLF
Method: A Human topoisomerase II Alpha Relaxation High Throughput Plate assay kit, purchased from Inspiralis (Norwich, UK) was used to evaluate the selectivity of compounds for the bacterial enzymes over the homologous human topoisomerase II. […] Biotinylated oligonucleotide in wash buffer was immobilized onto the wells and the excess oligonucleotide was washed off with wash buffer. […] The reactions were stopped by adding the TF buffer (50 mM NaOAc (pH 4.7), 50 mM NaCl, and 50 mM MgCl2) to allow the triplex formation (biotin-oligonucleotide-plasmid) for additional 30 min. Afterward, the unbound plasmid was washed off using TF buffer, and the solution of Promega Diamond dye in T10 buffer (10 mM Tris-HCl (pH 8.0), 1 mM EDTA) was added. […] Screening was performed at inhibitor concentrations of 10 μM. Raw data were converted to mean ± SD percentage of residual activity of the enzyme obtained by two independent measurements.

[13] = ATCC25922, read-out: MIC E. coli (ATCC 25922)
[14] = resistant to cefoxitin, chloramphenicol, clindamycin, linezolid, tetracycline, thiamulin, trimethoprim
[15] = ATCC25922, E. coli ATCC 25922, read-out: E. coli MIC (converted)
[16] = mean of two to four measurements, read-out: Topoisomerase IV IC50 E. coli

`COc1ccc2nccc(CCN3CCC(NCc4nc5ccccc5n4C)CC3)c2n1` [Compound 3, 1-(2-(6-Methoxy-1,5-naphthyridin-4-yl)ethyl)-N-((1-methyl-1H-benzo[d]imidazol-2-yl)methyl)piperidin-4-amine] showed an MIC ([1]; ATCC25922, 20 h, E. coli ATCC 25922, read-out: E. coli MIC (converted)) of 297 µM, an MIC [1, 13] of over 128 µg/mL and an MIC [2] of 1 µg/mL (≈ 2.32 µM). For the same compound, the IC50 [3] was over 100000 nM, the MIC [4] was 128 µg/mL (≈ 297 µM) and the MIC [5] was 64 µg/mL (≈ 149 µM). It also gave an MIC [6, 14] of 4 µg/mL (≈ 9.29 µM), an MIC [7] of over 128 µg/mL and an IC50 [8] of 1180 ± 90 nM. For the same compound, the “LE Topo IV E. coli” value ([8]; LE = (1.37/HA) × pIC50) was 0.25, the MIC [9] was 2 µg/mL (≈ 4.65 µM) and the MIC [10] was over 128 µg/mL. It also gave an MIC [11] of 2 µg/mL (≈ 4.65 µM) and a remaining activity at 10 µM [12] of 94.7 ± 4.82%.
Compound `COc1ccc2nccc(CCN3CCC(NCc4ccc(C(F)(F)F)nc4)CC3)c2n1` [Compound 21, 1-(2-(6-Methoxy-1,5-naphthyridin-4-yl)ethyl)-N-((6-(trifluoromethyl)pyridin-3-yl)methyl)piperidin-4-amine] has an MIC [1, 15] of 71.8 µM, an MIC [1, 13] of 32 µg/mL and an MIC [2] of 128 µg/mL (≈ 287 µM). The “LE Topo IV S. aureus” value ([3]; LE = (1.37/HA) × pIC50) was 0.20, the IC50 [3] was 18500 ± 1320 nM and the MIC [4] was 8 µg/mL (≈ 18 µM). It also gave an MIC [5] of 8 µg/mL (≈ 18 µM), an MIC [6, 14] of 0.5 µg/mL (≈ 1.12 µM) and an MIC [7] of over 128 µg/mL. The IC50 [8] was over 100000 nM, the MIC [9] was 0.5 µg/mL (≈ 1.12 µM) and the MIC [10] was 128 µg/mL (≈ 287 µM). For the same compound, the MIC [11] was 1 µg/mL (≈ 2.24 µM) and the remaining activity at 10 µM [12] was 95.5 ± 2.39%.
`COc1ccc2nccc(CCN3CCC(NCc4ccc(I)cc4)CC3)c2n1` [Compound 15] gave an MIC [1, 15] of 3.98 µM, an MIC ([1]; ATCC25922, range over E. coli strains, read-out: MIC E. coli) of 0.25 to 2 µg/mL and an MIC [1, 13] of 2 µg/mL. It also gave an MIC [2] of 0.015 µg/mL (≈ 0.0299 µM), an MIC [4] of 1 µg/mL (≈ 1.99 µM) and an MIC [5] of 0.25 µg/mL (≈ 0.498 µM). It also gave an MIC [6, 14] of 0.0312 µg/mL (≈ 0.0622 µM), an MIC [7] of 32 µg/mL (≈ 63.7 µM) and an IC50 [8, 16] of 21 ± 1 nM. For the same compound, the MIC [9] was 0.0312 µg/mL (≈ 0.0622 µM), the MIC [10] was 8 µg/mL (≈ 15.9 µM) and the MIC [11] was 0.015 µg/mL (≈ 0.0299 µM). It also gave a remaining activity at 10 µM [12] of 88.3 ± 3.33%.
In the case of `COc1ccc2nccc(CCN3CCC(NCc4ccc(Cl)cc4)CC3)c2n1` [Compound 13], the MIC [1, 15] is reported as 9.73 µM, the MIC [1, 13] is reported as 4 µg/mL and the MIC [2] is reported as 2 µg/mL (≈ 4.87 µM). It also gave an MIC [4] of 2 µg/mL (≈ 4.87 µM), an MIC [5] of 2 µg/mL (≈ 4.87 µM) and an MIC [6, 14] of 0.25 µg/mL (≈ 0.608 µM). It also gave an MIC [7] of over 128 µg/mL, an IC50 [8, 16] of 31 nM and an MIC [9] of 0.25 µg/mL (≈ 0.608 µM). It also gave an MIC [10] of 32 µg/mL (≈ 77.9 µM), an MIC [11] of 0.5 µg/mL (≈ 1.22 µM) and a remaining activity at 10 µM [12] of 102 ± 0.84%.
`COc1ccc2nccc(CCN3CCC(NCc4ccc(Br)cc4)CC3)c2n1` [Compound 14] gave an MIC [1, 15] of 4.39 µM, an MIC [1, 13] of 2 µg/mL and an MIC [2] of 0.5 µg/mL (≈ 1.1 µM). For the same compound, the MIC [4] was 1 µg/mL (≈ 2.2 µM), the MIC [5] was 1 µg/mL (≈ 2.2 µM) and the MIC [6] was 0.125 µg/mL (≈ 0.274 µM). For the same compound, the MIC [7] was 128 µg/mL (≈ 281 µM), the IC50 [8, 16] was 42 ± 3 nM and the MIC [9] was 0.0625 µg/mL (≈ 0.137 µM). It also gave an MIC [10] of 16 µg/mL (≈ 35.1 µM), an MIC [11] of 0.125 µg/mL (≈ 0.274 µM) and a remaining activity at 10 µM [12] of 98.2 ± 2.72%.
